According to US8895610B1, “Platinum (IV) compounds targeting zinc finger domains” (priority 2007, dated 2014):
Several values for one entry are separate records, joined by “and”; a condition that tells them apart may be missing. Equal entries are not always repeated.

Legend:
MMP-2 = assay: Feline blood serum immunofluorescent bead analysis: MMP-2; assay type: in vivo, cat; conditions: for MMP-2, relative blood serum measure: cats BR, CF
Protocol: (§1) Test sera samples from select felines were analyzed using the Rules-Based Medicine (Austin, Tex.) human multi-analyte for 90 measures from a single sample of less than 0.5 mL. The assay uses immunofluorescent beads to simultaneously measure antibody recognition to individually identifiable colored beads, each conjugated with a specific antibody, within a single well plate. Blood samples were drawn preceding (pretreatment) and following (post treatment) one-month FX101 treatment (from felines in Example 6), and are compared with two uninfected control felines. Human cross-reactive antibodies are commonly used for felines, and are relative rather than quantitative measures. Reductions in TNF-alpha and MMP-2 are evident in treated cats; TIMP-1 (Tissue Inhibitor of Metalloproteinases) is not associated with the downregulation of MMP-2. Both MMP-2 and MMP-9, as well as MCP-1, are considered important contributors to the penetration of virally-infected cells across the BBB (Webster, 2006). Additional comments follow the table.

[1] = test system: transfected HeLa and HEK-293 cells; assay: Viral transcription or infectivity in transfected HeLa and HEK-293 cells; assay type: cell-based
F2 zinc finger peptide = F2 zinc finger peptide (Human immunodeficiency virus type 1 group M subtype B, UniProt P12493)
Protocol: Solutions of F2 zinc finger peptide in phosphate-buffered saline without calcium or magnesium (see Example 1) alone or mixed with zinc and/or platinum compounds were analyzed by MALDI-TOF (matrix-assisted laser desorption/time-of-flight) MS (mass spectrometry). Briefly, the samples comprised 1:1 ratios of F2 peptide with metals in phosphate buffered saline without calcium or magnesium at 2×10 moles/liter concentrations. Additionally, samples containing both Zn(II) and Pt(IV) metals with F2 peptide in a 1:1:1 ratio were analyzed, as were various Pt(IV) and Pt(II) compounds mixed with F2 peptide solutions. Samples were considered to be at equilibrium after 12 hours stored at 4° C. Volumes of 0.5-1.0 microliters for each sample were individually spotted with or without dilution at 1:10, 1:100 or 1:1000 (˜165-193 pmole/microliter) in DHB matrix (Laser Biolabs, France). […]
The main group of peaks include at least two overlapping peaks characteristic of cysteines (see note above) with neutral mass within 2451.82-2457.82 Da, singly charged ions at m/z 2452.82-2458.82 Da. […] While MALDI-TOF MS is not quantitative, relative peak heights are proportional to relative amounts of species.

p24 Gag protein = assay: Western blot of p24 Gag protein, pNL4-3-transfected HeLa cells and viral progeny; assay type: cell-based, HIV-1; conditions: increasing concentration
Excerpt: In vitro, this process occurs in the presence of nucleic acids and a cofactor (Campbell, 1999; Campbell, 2001). Immature particles fail to consolidate an outer membrane, emphasizing the critical role of Gag proteins in the assembly process (Didierlaurent, 2008). As virions bud from the host membrane, viral protease cleaves p55 Gag into its final mature components: matrix (p17), capsid (p24), nucleocapsid (p7) and p6, each designated by its apparent molecular weight. […] Effects may extend across the Gag polyprotein and its components, further compounding activities.

FIV Petaluma = assay: p25 antigen evaluation of antiviral activity in MBM cells; assay type: cell-based, feline; conditions: for p25 Viral Antigen (OD), average / p25 Viral Antigen (OD), individual wells: 7 days post infection, K+ = 1.195, K− = 0.08, listed as 4
Protocol: Antiviral activity in MBM was determined by inoculating 200 Tissue Culture Infectious Doses 50% FIV Petaluma (Talbott, 1989) in 100 μL RPMI 1640 medium into quadruplicate wells of 96-well microplates containing 2×10^5 cells in 100 μL medium. The cultures were monitored by measuring FIV p25 capsid protein (Lombardi, 1994) release in the supernatants after 7 days of incubation at 37° C. in 5% CO2 (Table 12). Half the media (without drug) was replaced on days 2 and 6 after infection and initial drug exposure. […] Drugs are identified as: CPA-7 (#1); NAD (#2); cisplatin (#3) and FX101 (#4). […]. […] A minimum of 50% inhibition in vitro is required to offset viral infectivity and replication in vivo.

[2] = Blood brain barrier penetration: CSF platinum by graphite furnace atomic absorption; assay type: in vivo, cat; conditions: final i.v. treatment, both cats
Protocol: Cerebrospinal fluid (CSF) from cats BR and CF of Example 6 were collected under sedation following humane animal practices. CSF (0.5-1 ml) samples were collected within 15 minutes of FX101 peripheral intravenous (IV) injection to examine for drug penetration into the CNS. Importantly, this analysis was conducted upon the final IV drug treatment, which would most likely evidence resistances to CNS uptake as experienced by other CNS-penetrable drugs. Instead, CSF concentrations (analyzed by graphite furnace atomic absorption spectrometry for this inorganic complex as illustrated for cat “BG”) were equivalent to blood serum concentrations of 5 micrograms/mL in both cats, supporting a continuing unimpeded penetration into the vital CNS compartment through the blood brain barrier.

Calcitonin = assay: Feline blood serum immunofluorescent bead analysis: Calcitonin; assay type: in vivo, cat; conditions: cats BR, CF
Protocol: as §1

[3] = biological target: synthetic peptide F2, the carboxy-terminal zinc finger domain of HIV-1 (Human immunodeficiency virus type 1 group M subtype B, UniProt P12493); conditions: 100 pmole/microliter solutions, equal volumes; isotopic distribution of platinum at m/z~631
Protocol: FIGS. 1A and 1B show Time of Flight (TOF) mass spectroscopy (MS) fragmentation pattern of the synthetic peptide F2, the carboxy-terminal zinc finger domain of HIV-1, bound to platinum. […] Equal volumes of F2 with FX101, F2 with ZnCO3, F2 with both FX101 and ZnCO3 were mixed, resulting in four total peptide solutions. Full TOF MS was acquired on the QSTAR at the Johns Hopkins Proteomics Core Facility with 1 uL of original sample diluted 1:10 in 50% methanol with 0.1% formic acid/water and 3 uL of this mixture loaded onto the 2 um New Objective tip and nano-sprayed using ion spray voltage of 1200 eV; mass calibration of Csl mixture was performed prior to sample injection. Mass range 590 kDa (50%) to 10500 kDa (50%) was collected for 1.0 minute.

[4] = test system: peripheral CD4+ and CD8+ T-lymphocytes; assay: Circulating CD4+ and CD8+ T-lymphocytes by flow cytometry; assay type: in vivo, domestic cat
Protocol: Numbers of peripheral CD4^+ and CD8^+ T-lymphocytes in the blood were determined by labeling with mouse monoclonal antibodies to feline CD4^+ (FE1.7B12) and feline CD8^+ (FE1.10E9), obtained from Peter F. Moore, University of California, Davis, Calif. Bound primary antibodies were detected using FITC-conjugated anti-mouse IgG1 (Space-Serotec, Milan, Italy), and the samples were analyzed on a FACScan flow cytometer (Becton Dickinson, San Jose, Calif.). Both a negative (no drug) and positive (integrase inhibitor cocktail) control are included with data from two HK inhibitor-tested felines.

M2 strain of FIV = assay: Second FIV cat study, plasma viremia (five treated, three control cats); assay type: in vivo, domestic cat; conditions: after 6 intravenous doses of 3 mg/kg over four weeks, controls showed active viremia
Excerpt: Eight specific-pathogen-free domestic female cats infected >2 years with the M2 strain of FIV were used in another study. Cats were housed individually in a climatized animal facility in accordance with standards, had ad libitum access to fresh water and food, and were sedated with Tiletamine/Zolazepam intramuscularly prior to any procedure. The animals were divided into two groups, with five receiving FX101 in 10% DMSO/saline (treated) and three receiving only 10% DMSO/saline (control). Prior to initiation of the treatment and at scheduled times, samples were collected for hematological and virological analyses. The cats received 6 intravenous doses of 3 mg/kg FX101 over four weeks. Cats were matched by birthdates and infection dates with similar viral blood plasma viremia levels at the onset of the study. […] Current antretrovirals are required on a daily basis; the efficacy of six doses of treatment over four weeks supports a distinct mechanism from the nucleotide/non-nucleotide reverse transcriptase, protease and infectivity inhibitors. Efficacy extends across diverse strains of FIV, in agreement with alterations by platinum(IV) compounds to the zinc-binding nucleocapsid domain being therapeutically targeted. It is anticipated that cotherapies targeting multiple mechanisms may eventually provide viral clearance for an infected host.

[5] = post treatment (one-month FX101 treatment)

SMILES: [NH2][Pt]([NH2])([Cl])([Cl])([Cl])[N+](=O)[O-] [FX101, nitrotrichlorodiamminoPt(IV)]
- MMP-2, relative blood serum measure (MMP-2; [5]): 2070 ng/mL and 2120 ng/mL
- MMP-2 in serum of treated cats (in words) (MMP-2; post vs pre one-month treatment): Reductions
- MMP-2, relative blood serum measure (MMP-2; pretreatment): 3000 ng/mL and 3150 ng/mL
- direct inhibition of viral transcription or infectivity [1]: did not act as a direct inhibitor of viral transcription or infectivity
- competition with zinc for the F2 zinc finger binding domain (F2 zinc finger peptide; 1:1:1 F2:FX:Zn): thermodynamic competition of FX over zinc
- coordination with F2 peptide (set of peaks at m/z 2452.82-2458.82 Da) (F2 zinc finger peptide; 1:1 with F2 peptide in PBS, 12 hours at 4° C.): unique to the F2 peptide+FX spectral complex
- mature p24 content in host cells and viral progeny (Western blot) (p24 Gag protein): absence of mature p24
- inhibition (elimination of all measures of virus) by day 7 (FIV Petaluma; 7 days, concentrations used 5 and 20 μM, listed as #4): 100%
- p25 Viral Antigen (OD), average (FIV Petaluma; conc 5 μM): 0 OD
- p25 Viral Antigen (OD), individual wells (FIV Petaluma; conc 5 μM): 0 OD
- p25 Viral Antigen (OD), average (FIV Petaluma; conc 20 μM): 0 OD
- p25 Viral Antigen (OD), individual wells (FIV Petaluma; conc 20 μM): 0 OD
- blood serum concentrations [2]: 5 micrograms/mL
- CSF concentrations ([2]; within 15 minutes of peripheral i.v. injection): 5 micrograms/mL
- Calcitonin, relative blood serum measure (Calcitonin; [5]): 2.9 pg/mL
- Calcitonin, relative blood serum measure (Calcitonin; pretreatment): 7.6 pg/mL and 11 pg/mL
- direct binding of platinum to F2 peptide by TOF MS [3]: Pt-bound peptide
- Relative CD4+/CD8+ T-Lymphocyte Counts ([4]; Aug. 2, 2007 pretreatment period): 1.1 and 1.3
- Relative CD4+/CD8+ T-Lymphocyte Counts ([4]; Aug. 23, 2007 start of treatment period): 1.2
- Relative CD4+/CD8+ T-Lymphocyte Counts ([4]; Aug. 30, 2007 treatment period): 1.5 and 1.3
- Relative CD4+/CD8+ T-Lymphocyte Counts ([4]; Dec. 1, 2005 pretreatment period): 1.5 and 2.0
- Relative CD4+/CD8+ T-Lymphocyte Counts ([4]; Feb. 1, 2006 pretreatment period): 0.82 and 1.1
- Relative CD4+/CD8+ T-Lymphocyte Counts ([4]; Jan. 1, 2006 pretreatment period): 1.6 and 0.92
- Relative CD4+/CD8+ T-Lymphocyte Counts ([4]; Mar. 1, 2006 pretreatment period): 0.84 and 1.2
- Relative CD4+/CD8+ T-Lymphocyte Counts ([4]; May 8, 2008 (+33 wk) post treatment): 1.8 and 1.6
- Relative CD4+/CD8+ T-Lymphocyte Counts ([4]; Nov. 1, 2005 pretreatment period): 0.86 and 0.85
- Relative CD4+/CD8+ T-Lymphocyte Counts ([4]; Oct. 4, 2007 (+2 wk) post treatment): 1.9 and 1.4
- Relative CD4+/CD8+ T-Lymphocyte Counts ([4]; Sep. 4, 2007 treatment period): 1.5 and 1.6
- final CD4+/CD8+ ratios compared with controls ([4]; conclusion of the study, both tested felines): remained higher
- plasma viremia levels (M2 strain of FIV): below the detection limit of the assay
